According to patent US6555582B1, “Eye treatments using synthetic thyroid hormone compositions” (The Regents of the University of California, priority 1996, dated 2003):
Like-named read-outs stand apart in the source and are kept apart here.

Experiments:
[1] = test system: HTM cells; conditions: for reduction in HA secretion: T3-supplemented vs T3-stripped media (No Tx)
[2] = test system: HTM cells; conditions: 10^−7 M, non-confluent cultures, serum-free, day 10, vs controls lacking T3
[3] = test system: CD44E; conditions: HTM cells exposed to supplemental T3 for 18 hours
Method: (§1) To investigate whether CD44 receptors are expressed by HTM cells, four CD44 isoforms can be measured using RT-PCR analysis with probes for CD44s, CD44E, CD44-v1 and CD44-v3. […] RNA was made using RNA TrackTM (Biotecx, Friendswood, Tex.). The RNA was used as a template for the first strand synthesis of cDNA in a reaction mixture containing 1000 U Moloney Murine Leukemia Virus Reverse Transcriptase (BRL, Gaithersburg, Md.), 50 mM random hexamer primer, 50 mM Tris-HCl (pH 8.3), 75 mM KCl, 10 mM dithiothreitol, 3 mM MgC12, 0.5 mM each of dGTP, dATP, dTTP and dCTP in 60 ul total volume. The cDNA reactions were carried out at 37° C. for 90 min, and then diluted 1:3 or 1:7 in water, pretreated with DEPC. Oligonucleotide primers were diluted to 40 μM in water.
(§2) For RT-PCR, a modified hot start method was used. A quantity of 3-5 μl of cDNA was added to 30 μl of a master mix containing 0.8 μl of each primer, 17 mM Tris-HCI (pH 8.3) and 80 mM KCI. Water was added to the cDNA reactions to a final volume of 40 μl. All reactions were overlaid with light mineral oil and heated to 99° C. After 10 min the reactions were cooled to 94° C. and a 10 μl volume containing 7 mM MgCI2, 1 mM each of dATP, dTTP, dGTP and dCTP, and 1.2 U Taq Polymerase (Perkin-Elmer Cetus, Branchburg, N.J.) was added directly through the oil overlay. […]

[4] = test system: CD44-v 3; conditions: HTM cells exposed to supplemental T3 for 18 hours
Method: as §1, §2

[5] = test system: Normal pigmented Dutch rabbits
[6] = test system: HTM cells; conditions: 10^−7M
Method: The assay system visualizes the cell's extracellular matrix by taking advantage of its ability to exclude added formalized red blood cells from an area around the cell. Proteoglycan monomer and HA are added to the cells in excess as pericellular matrix assembly is observed by microscopy.
HTM cells were plated on 35-mm dishes at a density of 1×10^4 cells per plate. […] For exogenous matrix assembly, cells were then incubated for 3 hours at 37° C. with 3.0 mg/ml of aggregating proteoglycan monomer (purified from rat chondrosarcoma tumor (Ref. 1)) and 15 μg/ml of hyaluronan (grade 1, Sigma Chemical Co., St. Louis, Mo.). The medium was removed and 0.75 ml of a suspension of formaldehyde fixed red blood cells (1×10^8 cells/ml) in phosphate buffered saline with 0.1% bovine serum albumin was added to each well of cells. After 10 minutes the cells and extracellular matrices (ECMs) were observed visualized by phase contrast microscopy (REF 2, 3). The cell matrices were categorized into one of three groups. Cells having no coats have no visible ECM. Cells having small coats have a visible ECM that extends less than the width of the cell's nucleus out from the cell's plasma membrane. Cells having large coats have a visible ECM that extends greater than the width of the cell's nucleus out from the cell's plasma membrane.

## 3,3′-5-triiodo-L-thyronine [T3]
[1]; 10^−7 M, confluent cells, day 5, vs control cultures
  fold reduction in secreted HA concentration: 2.95 fold
[1]; day 2, FIG. 1
  reduction in HA secretion: 57%
[1]; day 4, FIG. 1
  reduction in HA secretion: 66%
[1]; cultured HTM cells, FIG. 2
  T3 concentration of maximal inhibition of HA production: 10^−7-10^−6 M
[1]; non-confluent (less than 75% confluent) cells
  reduction of HA concentration in the media, non-confluent vs confluent treated cells: even greater reduction
[1]; read-out: half maximal concentration for reduction of HA concentration, confluent cells, dose response curve FIG. 2
  EC50: ~5 nM
[2]
  fold increase in secreted hyaluronidase activity: 1.9 fold
[3]
  expression of CD44E isoform: dramatic reduction
[4]
  expression of CD44-v 3 isoform: dramatic reduction
[5]; five rabbits
  decrease in IOP within three weeks of administration: at least some detectable decrease in IOP
[5]; one rabbit
  largest decrease in IOP after three weeks of T3 administration: 25%
[6]; 2 days
  fold greater number of cells with no coats than cells grown in the absence of T3: ~2 fold
[6]; 4 days
  fold greater number of cells with no coats than cells grown in the absence of T3: more than 4 fold
